# Measurements from ChEMBL document CHEMBL3046711, “Novel glitazones: glucose uptake and cytotoxic activities, and structureactivity relationships” (2012).
# What was measured:
# Type in all cases: functional
# A549 = assay: Cytotoxicity against Homo sapiens (human) A549 cells after 3 days by SRB assay; conditions: A549, 72 h
# Hemi-diaphragm [1] = assay: Induction of glucose uptake in Rattus norvegicus Wistar (rat) hemi-diaphragm at 2 mg after 45 min by GOD/POD enzymatic method in presence of insulin
# Hemi-diaphragm [2] = assay: Induction of glucose uptake in Rattus norvegicus Wistar (rat) hemi-diaphragm at 2 mg after 45 min by GOD/POD enzymatic method
SMILES,CC50 (A549) [µg/mL],Activity (Hemi-diaphragm [1]) [mg/dL],Activity (Hemi-diaphragm [2]) [mg/dL]
O=C1NC(=O)/C(=C/c2ccc(OCCOc3ccccc3Cl)cc2)S1,100,22.5,6
CN(CCOc1ccc(CC2SC(=O)NC2=O)cc1)c1ccccn1 (stereo not given) [ROSIGLITAZONE],,37,15.5
